The test system of experiment [1] is SARS-CoV-2 replicon. Nature of the experiment: microbe, parasite or virus in culture. Format: cell-based.
Experiment [2] concerns human coronavirus (HCoV) 229E. In words: microbe, parasite or virus in culture. It is filed as cell-based, human coronavirus 229E.
Method: Test compounds were provided by the sponsor. Reference compound remdesivir was provided by WuXi AppTec. Compounds were assayed at 8 concentrations (to be defined by sponsor), in duplicate wells.
MRCS cells were obtained from the ATCC, and maintained in the Minimum Essential Medium supplemented with 10% FBS, 1% L-glutamine, 1% NEAA and 1% penicillin-streptomycin. Minimum Essential Medium supplemented with 5% FBS, 1% L-glutamine, 1% NEAA and 1% penicillin-streptomycin was used as the assay medium.
Cells were seeded in 96 well plates, in 100 μl per well of assay medium, and cultured at 37° C. and 5% CO2 overnight. Next day, test compound was diluted with assay medium and then added into the cells, 50 μl per well. Then 50 μl per well of assay medium diluted virus was added. The final volume of the cell culture was 200 μl per well. […] The CPE were measured by CellTiter Glo following the manufacturer's manual. The antiviral activity of compounds was calculated based on the protection of the virus-induced CPE at each concentration normalized by the virus control.
EC50 and CC50 values were calculated using the GraphPad Prism software using the nonlinear regression model of log(inhibitor) vs. response—Variable slope (four parameters).
Setting [3] is: Severe acute respiratory syndrome coronavirus 2, Huh-7, 24 h; read-out: Replicon EC50.
Setting [4] is: unidentified human coronavirus, 72 h, MRCS cells, HCoV 229E, 3 days, CellTiter Glo, read-out: 229E CPE EC50.
Setting [5] is: MRCS cells, HCoV 229E, 3 days, CellTiter Glo, read-out: 229E CPE EC50.

Several values for one entry are separate records, joined by “and”; a condition that tells them apart may be missing. Equal values may be shown once. Read-outs that look alike come from different tables or passages of the source.

Results on 34 molecules are retold here after patent publication US11760722B2 (priority 2022, dated 2023).

For orientation: EC50 means the concentration at which the effect is half-maximal.

Turning to `CC(C)(C)OC(=O)N[C@H](C(=O)N1C[C@H]2[C@@H]([C@H]1C(=O)N[C@H](C#N)C[C@@H]1CCNC1=O)C2(C)C)C(C)(C)C` [Compound 12], the EC50 was determined as 0.106 µM in experiment [1] (Severe acute respiratory syndrome coronavirus 2, Huh-7, 24 h, read-out: Replicon EC50); 0.119 µM in experiment [1] (read-out: Replicon EC50); 0.849 µM in experiment [2] (unidentified human coronavirus, 72 h, read-out: 229E CPE EC50, MRCS cells, HCoV 229E, 3 days, CellTiter Glo).
For `CC(C)(C)[C@H](NC(=O)NC1(CS(=O)(=O)C(C)(C)C)CCCCC1)C(=O)N1C[C@H]2[C@@H]([C@H]1C(=O)N[C@H](C#N)C[C@@H]1CCNC1=O)C2(C)C` [Compound 16], the EC50 in experiment [1] (setting [3]) is 1.29 µM; in experiment [1] (read-out: Replicon EC50) it was 1.88 µM and 2.04 µM; in experiment [2] (setting [4]), 16.8 µM.
In the case of `CC(C)(C)[C@H](NC(=O)C(c1ccccc1)c1ccccc1)C(=O)N1C[C@H]2[C@@H]([C@H]1C(=O)N[C@H](C#N)C[C@@H]1CCNC1=O)C2(C)C` [Compound 18, (1R,2S,5S)—N—((S)-1-cyano-2-((S)-2-oxopyrrolidin-3-yl)ethyl)-3-((S)-2-(2,2-diphenylacetamido)-3,3-dimethylbutanoyl)-6,6-dimethyl-3-azabicyclo[3.1.0]hexane-2-carboxamide], the 50% effective concentration (EC50) in experiment [1] (setting [3]) was found to be 1.27 µM; in experiment [1] (read-out: Replicon EC50), 1.41 µM; in experiment [2] (setting [4]) it was 0.85 µM.
For the molecule `CC(C)(C)[C@H](NC(=O)C12CC(C1)C2)C(=O)N1C[C@H]2[C@@H]([C@H]1C(=O)N[C@H](C#N)C[C@@H]1CCNC1=O)C2(C)C` [Compound 20], the EC50 came to 0.186 µM in experiment [1] (setting [3]), 0.232 µM in experiment [1] (read-out: Replicon EC50) and 2.74 µM in experiment [2] (setting [4]).
Consider `CC(C)(C)[C@H](NC(=O)[C@H]1CCO1)C(=O)N1C[C@H]2[C@@H]([C@H]1C(=O)N[C@H](C#N)C[C@@H]1CCNC1=O)C2(C)C` [Compound 22], for which the figures for the half-maximal effective concentration (EC50) in experiment [1] (setting [3]) and in experiment [2] (setting [4]) were 3 µM and 19.3 µM, respectively.
Taken in the same sequence, the figures for `Cn1c(C(=O)N[C@H](C(=O)N2C[C@H]3[C@@H]([C@H]2C(=O)N[C@H](C#N)C[C@@H]2CCNC2=O)C3(C)C)C(C)(C)C)cc2ccccc21` [Compound 27] were 0.964 µM and 0.963 µM.
With `CC(C)(C)[C@H](NC(=O)c1cnc2[nH]ccc2c1)C(=O)N1C[C@H]2[C@@H]([C@H]1C(=O)N[C@H](C#N)C[C@@H]1CCNC1=O)C2(C)C` [Compound 32], the EC50 in experiment [1] (setting [3]) came to 3.15 µM; in experiment [2] (setting [4]), 13.1 µM.
As to `CC(C)(C)[C@H](NC(=O)CC#N)C(=O)N1C[C@H]2[C@@H]([C@H]1C(=O)N[C@H](C#N)C[C@@H]1CCNC1=O)C2(C)C` [Compound 33], the values for the EC50 in experiment [2] (setting [5]) and in experiment [2] (setting [4]) were 18 µM and 17.8 µM, respectively.
Turning to `CC(C)(C)[C@H](NC(=O)C12CC(F)(C1)C2)C(=O)N1C[C@H]2[C@@H]([C@H]1C(=O)N[C@H](C#N)C[C@@H]1CCNC1=O)C2(C)C` [Compound 34], the EC50 in experiment [1] (setting [3]) is 0.27 µM; in experiment [1] (read-out: Replicon EC50), 0.3 µM and 0.42 µM; in experiment [2] (setting [4]) it was 0.534 µM.
With `CNC(=S)N[C@H](C(=O)N1C[C@H]2[C@@H]([C@H]1C(=O)N[C@H](C#N)C[C@@H]1CCNC1=O)C2(C)C)C(C)(C)C` [Compound 35], the concentration for a half-maximal effect (EC50) in experiment [2] (setting [4]) was 4.96 µM.
Take `CC(C)(C)[C@H](NC(=O)CC12CC(C1)C2)C(=O)N1C[C@H]2[C@@H]([C@H]1C(=O)N[C@H](C#N)C[C@@H]1CCNC1=O)C2(C)C` [Compound 40]: the EC50 was 0.27 µM in experiment [1] (setting [3]); 0.32 µM and 0.36 µM and 0.39 µM in experiment [1] (read-out: Replicon EC50); 3.26 µM in experiment [2] (setting [5]); 3.12 µM in experiment [2] (setting [4]).
As to `CN(C)S(=O)(=O)N[C@H](C(=O)N1C[C@H]2[C@@H]([C@H]1C(=O)N[C@H](C#N)C[C@@H]1CCNC1=O)C2(C)C)C(C)(C)C` [Compound 47, (1R,2S,5S)—N—((S)-1-cyano-2-((S)-2-oxopyrrolidin-3-yl)ethyl)-3-((S)-2-((N,N-dimethylsulfamoyl)amino)-3,3-dimethylbutanoyl)-6,6-dimethyl-3-azabicyclo[3.1.0]hexane-2-carboxamide], the EC50 in experiment [2] (setting [5]) was 7.32 µM; in experiment [2] (setting [4]) it was 6.19 µM.
Taken in the same sequence, the figures for `CC(C)(C)[C@H](NS(=O)(=O)N1CCOCC1)C(=O)N1C[C@H]2[C@@H]([C@H]1C(=O)N[C@H](C#N)C[C@@H]1CCNC1=O)C2(C)C` [Compound 49] were 5.78 µM and 3.88 µM.
For the molecule `CC(C)(C)[C@H](NS(=O)(=O)c1ccc(F)cc1)C(=O)N1C[C@H]2[C@@H]([C@H]1C(=O)N[C@H](C#N)C[C@@H]1CCNC1=O)C2(C)C` [Compound 53, (1R,2S,5S)—N—((S)-1-cyano-2-((S)-2-oxopyrrolidin-3-yl)ethyl)-3-((S)-2-((4-fluorophenyl)sulfonamido)-3,3-dimethylbutanoyl)-6,6-dimethyl-3-azabicyclo[3.1.0]hexane-2-carboxamide], the EC50 in experiment [1] (setting [3]) stood at 0.051 µM; in experiment [1] (read-out: Replicon EC50) it was 0.1 µM; in experiment [2] (setting [5]) it was 0.364 µM; in experiment [2] (setting [4]), 0.265 µM.
For the molecule `CC(C)(C)[C@H](NS(=O)(=O)c1ccc(Cl)s1)C(=O)N1C[C@H]2[C@@H]([C@H]1C(=O)N[C@H](C#N)C[C@@H]1CCNC1=O)C2(C)C` [Compound 54], the EC50 in experiment [1] (setting [3]) is 0.054 µM; in experiment [1] (read-out: Replicon EC50), 0.058 µM; in experiment [2] (setting [5]), 0.127 µM; in experiment [2] (setting [4]), 0.106 µM.
Turning to `C=C(F)C(=O)N[C@H](C(=O)N1C[C@H]2[C@@H]([C@H]1C(=O)N[C@H](C#N)C[C@@H]1CCNC1=O)C2(C)C)C(C)(C)C` [Compound 66], the EC50 amounted to 1.4 µM in experiment [2] (setting [5]) and 1.08 µM in experiment [2] (setting [4]).
Turning to `CC(C)(C)[C@H](NC(=S)NC1CCCC1)C(=O)N1C[C@H]2[C@@H]([C@H]1C(=O)N[C@H](C#N)C[C@@H]1CCNC1=O)C2(C)C` [Compound 70], the EC50 worked out at 1.79 µM in experiment [1] (setting [3]) and 4.99 µM in experiment [2] (setting [4]).
Consider `CC(C)(C)[C@H](NC(=O)C(Cl)(Cl)C(F)(F)F)C(=O)N1C[C@H]2[C@@H]([C@H]1C(=O)N[C@H](C#N)C[C@@H]1CCNC1=O)C2(C)C` [Compound 71], for which the EC50 in experiment [2] (setting [5]) stood at 0.321 µM; in experiment [2] (setting [4]), 0.302 µM.
Take `CCNC(=S)N[C@H](C(=O)N1C[C@H]2[C@@H]([C@H]1C(=O)N[C@H](C#N)C[C@@H]1CCNC1=O)C2(C)C)C(C)(C)C` [Compound 72]: the values for the EC50 in experiment [2] (setting [5]) and in experiment [2] (setting [4]) were 0.89 µM and 0.718 µM, respectively.
For the molecule `CC(C)NC(=S)N[C@H](C(=O)N1C[C@H]2[C@@H]([C@H]1C(=O)N[C@H](C#N)C[C@@H]1CCNC1=O)C2(C)C)C(C)(C)C` [Compound 73], the figures for the EC50 in experiment [1] (setting [3]) and in experiment [2] (setting [4]) were 0.14 µM and 1.32 µM, respectively.
Taken in the same sequence, the figures for `CC(C)(C)[C@H](NC(=S)Nc1ccccc1)C(=O)N1C[C@H]2[C@@H]([C@H]1C(=O)N[C@H](C#N)C[C@@H]1CCNC1=O)C2(C)C` [Compound 74] were 0.49 µM and 11.5 µM.
Regarding `CC(C)(C)[C@H](NC(=O)Cc1ccc2c(c1)CCC2)C(=O)N1C[C@H]2[C@@H]([C@H]1C(=O)N[C@H](C#N)C[C@@H]1CCNC1=O)C2(C)C` [Compound 82], the EC50 in experiment [2] (setting [5]) was found to be 0.515 µM; in experiment [2] (setting [4]), 0.449 µM.
With `CC(C)(C)[C@H](NS(=O)(=O)c1cccc2ccccc12)C(=O)N1C[C@H]2[C@@H]([C@H]1C(=O)N[C@H](C#N)C[C@@H]1CCNC1=O)C2(C)C` [Compound 85], the values for the EC50 in experiment [2] (setting [5]) and in experiment [2] (setting [4]) were 0.368 µM and 0.238 µM, respectively.
Taken in the same sequence, the figures for `CC(C)(C)[C@H](NS(=O)(=O)c1cccnc1)C(=O)N1C[C@H]2[C@@H]([C@H]1C(=O)N[C@H](C#N)C[C@@H]1CCNC1=O)C2(C)C` [Compound 93] were 4.38 µM and 3.06 µM.
For the molecule `Cc1ccc(S(=O)(=O)N[C@H](C(=O)N2C[C@H]3[C@@H]([C@H]2C(=O)N[C@H](C#N)C[C@@H]2CCNC2=O)C3(C)C)C(C)(C)C)cc1` [Compound 96], the EC50 was 0.339 µM in experiment [2] (setting [5]) and 0.246 µM in experiment [2] (setting [4]).
On to `CC(C)(C)[C@H](NS(=O)(=O)c1cccs1)C(=O)N1C[C@H]2[C@@H]([C@H]1C(=O)N[C@H](C#N)C[C@@H]1CCNC1=O)C2(C)C` [Compound 100], for which the EC50 in experiment [2] (setting [5]) turned out to be 0.636 µM; in experiment [2] (setting [4]), 0.432 µM.
Taken in the same sequence, the figures for `CC(C)(C)[C@H](NS(=O)(=O)c1ccc2ccccc2c1)C(=O)N1C[C@H]2[C@@H]([C@H]1C(=O)N[C@H](C#N)C[C@@H]1CCNC1=O)C2(C)C` [Compound 102] were 0.125 µM and 0.084 µM.
`CC(C)(C)[C@H](NS(=O)(=O)c1ccc(F)s1)C(=O)N1C[C@H]2[C@@H]([C@H]1C(=O)N[C@H](C#N)C[C@@H]1CCNC1=O)C2(C)C` [Compound 113]: the EC50 in experiment [2] (setting [4]) was 0.388 µM.
Consider `CC(C)(C)[C@H](NS(=O)(=O)c1sccc1Cl)C(=O)N1C[C@H]2[C@@H]([C@H]1C(=O)N[C@H](C#N)C[C@@H]1CCNC1=O)C2(C)C` [Compound 114], for which the EC50 in experiment [2] (setting [5]) stood at 0.133 µM; in experiment [2] (setting [4]) it was 0.067 µM.
With `Cc1ccc(S(=O)(=O)N[C@H](C(=O)N2C[C@H]3[C@@H]([C@H]2C(=O)N[C@H](C#N)C[C@@H]2CCNC2=O)C3(C)C)C(C)(C)C)s1` [Compound 118], the EC50 in experiment [2] (setting [4]) is 0.322 µM.
On to `CC(C)(C)[C@H](NS(=O)(=O)c1ccc(C2CC2)cc1)C(=O)N1C[C@H]2[C@@H]([C@H]1C(=O)N[C@H](C#N)C[C@@H]1CCNC1=O)C2(C)C` [Compound 121], for which the concentration giving a half-maximal response (EC50) in experiment [2] (setting [5]) is 0.066 µM; in experiment [2] (setting [4]), 0.056 µM.
Regarding `COc1ccsc1S(=O)(=O)N[C@H](C(=O)N1C[C@H]2[C@@H]([C@H]1C(=O)N[C@H](C#N)C[C@@H]1CCNC1=O)C2(C)C)C(C)(C)C` [Compound 127], in experiment [2] (setting [4]), the EC50 came out at 0.711 µM.
`CC(C)(C)[C@H](NC(=O)C(F)(F)C(F)(F)C(F)(F)F)C(=O)N1C[C@H]2[C@@H]([C@H]1C(=O)N[C@H](C#N)C[C@@H]1CCNC1=O)C2(C)C` [Compound 133]: the EC50 in experiment [2] (setting [5]) is 0.16 µM and 0.164 µM; in experiment [2] (setting [4]) it was 0.122 µM.
With `COc1ccc(S(=O)(=O)N(C)[C@H](C(=O)N2C[C@H]3[C@@H]([C@H]2C(=O)N[C@H](C#N)C[C@@H]2CCNC2=O)C3(C)C)C(C)(C)C)cc1` [Compound 137], in experiment [2] (setting [4]), the concentration for a half-maximal effect (EC50) turned out to be 4.84 µM.
